In patent US20040002441A1, “Recombination modulators and methods for producing and using the same” (priority 2000, published 2004):

Tests used:
[1] = target: T1, Vaccinia topoisomerase (type Ib) (Vaccinia virus, UniProt P68698); assay: biochemical; type: biochemical
T1 construct: made in house; host or cells: Escherichia coli BL21 infected with bacteriophage λCE6

[2] = target: T1, Vaccinia topoisomerase (type Ib); assay: biochemical; settings: peptide concentrations up to 42 μM
[3] = target: T2, E. coli topoisomerase I (type Ia) (Escherichia coli, UniProt P06612); assay: biochemical; settings: peptide concentrations up to 42 μM
T2 sequence (P06612 1-865): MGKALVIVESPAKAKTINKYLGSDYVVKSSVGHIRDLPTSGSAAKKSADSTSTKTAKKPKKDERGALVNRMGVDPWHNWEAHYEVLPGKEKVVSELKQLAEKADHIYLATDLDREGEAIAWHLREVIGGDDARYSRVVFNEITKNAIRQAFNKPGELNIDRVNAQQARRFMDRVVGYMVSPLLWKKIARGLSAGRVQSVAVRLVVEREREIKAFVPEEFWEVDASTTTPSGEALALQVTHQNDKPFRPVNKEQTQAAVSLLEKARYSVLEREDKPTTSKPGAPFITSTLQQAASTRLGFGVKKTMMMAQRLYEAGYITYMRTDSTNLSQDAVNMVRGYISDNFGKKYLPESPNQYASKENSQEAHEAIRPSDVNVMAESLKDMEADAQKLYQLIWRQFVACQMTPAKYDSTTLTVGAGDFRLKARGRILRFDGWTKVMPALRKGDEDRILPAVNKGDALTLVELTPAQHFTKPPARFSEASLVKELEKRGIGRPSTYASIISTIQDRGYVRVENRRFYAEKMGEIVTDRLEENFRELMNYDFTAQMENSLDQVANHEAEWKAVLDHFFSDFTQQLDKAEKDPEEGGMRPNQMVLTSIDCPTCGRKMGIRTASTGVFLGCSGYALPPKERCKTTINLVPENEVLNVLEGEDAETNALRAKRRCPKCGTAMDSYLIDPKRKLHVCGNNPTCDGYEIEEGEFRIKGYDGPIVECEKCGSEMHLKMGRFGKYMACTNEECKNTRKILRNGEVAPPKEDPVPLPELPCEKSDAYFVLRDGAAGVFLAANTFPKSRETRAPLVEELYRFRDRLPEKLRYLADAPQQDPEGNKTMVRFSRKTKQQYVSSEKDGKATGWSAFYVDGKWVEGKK
Description: E. coli topoisomerase I (TopA) exemplifies the type IA topoisomerase family. Type IA enzymes are mechanistically and structurally unrelated to the topoisomerase IB/tyrosine recombinase superfamily of DNA strand transferases.

[4] = target: T3, Lambda integrase (Int) (Bacteriophage lambda) (UniProt P03700); assay: cleavage_in_vitro
T3 sequence: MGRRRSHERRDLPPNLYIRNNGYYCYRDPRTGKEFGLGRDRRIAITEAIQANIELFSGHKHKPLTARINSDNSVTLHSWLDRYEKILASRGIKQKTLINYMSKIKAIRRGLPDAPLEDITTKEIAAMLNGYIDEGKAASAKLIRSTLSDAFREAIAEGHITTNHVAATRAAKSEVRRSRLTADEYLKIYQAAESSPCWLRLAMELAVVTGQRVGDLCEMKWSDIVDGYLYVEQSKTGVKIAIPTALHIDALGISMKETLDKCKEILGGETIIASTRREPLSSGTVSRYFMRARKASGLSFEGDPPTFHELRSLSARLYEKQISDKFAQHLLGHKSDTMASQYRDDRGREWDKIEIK

Substance: WCHYNY
- effect on transesterification (DNA cleavage) [1]: did not inhibit transesterification
- effect on DNA relaxation [2]: no effect
- effect on DNA relaxation [3]: no effect

Substance: attL + attR excision substrates
- activity ([4]; excision with IHF and Xis, no peptide): > 70%

Substance: excision Holliday junction (attL x attR)
- activity ([4]; Int alone HJ resolution, binds weakly alone, 42.4% with IHF, 14.4% with Xis, 58.2% with IHF+Xis, 95.3% with IHF+Xis no spermidine): 7.2%
